“And” between values parts separate entries of the source, which are not always exact repeats. Equal values may be shown once.
What was measured:
[1] = system: homme; test: Clinical use as sedative and antidepressant agents; assay type: in vivo; conditions: for résultats en tant qu'agents antidépresseurs chez l'homme: tablets or capsules of 5 mg, 3 per day
[2] = system: rats; test: Interaction with amphetamine (stereotypies); assay type: in vivo, rat; conditions: 8 and 32 mg/kg
Experimental: L'amphétamine (2 mg/kg) est injectée par voie intrapéritonéale à des lots de 6 rats, 30 min après l'administration de CRL 40827. […] Interaction avec la réserpine
(§1) En procédant selon les modalités opératoires données ci-dessus pour le CRL 40827, on observe ce qui suit.

[3] = system: souris; test: Motility reduced by habituation to the enclosure; assay type: in vivo; conditions: mouse
Experimental: Après 18 h de séjour dans les actimètres, les souris (6 par dose, 12 témoins) reçoivent le CRL 40827. Elles sont aussitôt replacées dans leurs enceintes respectives et, 30 min plus tard, on enregistre leur motilité pendant 30 min.
as §1

[4] = system: souris mâles; test: Intergroup aggressiveness test (number of fights after removal of the partition); assay type: in vivo; conditions: mouse; dose not given
Excerpt: Des essais comparatifs ont été entrepris pour mettre en évidence quels sont les effets chez l'animal qui permettent de distinguer les produits selon l'invention de leurs homologues fluorés connus. Parmi ces essais, on a résumé ceux concernant les propriétés antiagressives. Plus précisément, on a évalué la diminution de l'agressivité intergroupes selon la technique suivante : a.près avoir séjourné pendant 3 semaines de part et d'autre d'une cloison opaque séparant leur cage par le milieu, des groupes de trois souris mâles de 20 g chacune environ reçoivent, par voie intrapéritonéale, les produits à tester en solution dans de l'eau distillée, les animaux témoins ne recevant que de l'eau distillée par voie intrapéritonéale. Une demi-heure plus tard, les deux groupes d'une même cage sont réunis par retrait de la cloison opaque et on note le nombre de combats qui surviennent en 10 min. On a utilisé trois cages pour chaque produit à tester et six cages pour le lot témoin ne recevant pas les produits à tester.
Les résultats du tableau I ci-après donnent la diminution de l'agressivité intergroupes par rapport au lot témoin, tous les produits à tester étant administrés à la dose de 8 mg/kg par voie intrapéritonéale. […]

[5] = system: souris; test: Interaction with apomorphine, mouse; assay type: in vivo
Experimental: (§2) Le CRL 40827, en solution dans de l'eau distillée, a été administré par voie intrapéritonéale sous un volume de 20 ml/kg chez la souris mâle et un volume de 5 ml/kg chez le rat mâle. 1°) - Toxicité
Des lots de 6 souris reçoivent le CRL 40827 30 min avant l'injection sous-cutanée d'apomorphine à la dose de 1 ou 16 mg/kg.
as §1

[6] = system: souris; test: Interaction with oxotremorine; assay type: in vivo; conditions: mouse
Experimental: Le CRL 40827 est administré à des lots de 6 souris 30 min avant l'injection intrapéritonéale de 0,5 mg/kg d'oxotrémo- rine. On observe que, dès la dose de 0,5 mg/kg, le CRL 40827 antagonise l'action hypothermisante de l'oxotrémorine; cet effet est très net à 32 mg/kg.
as §1

[7] = system: souris; test: Asphyxic anoxia (gallamine triethiodide); assay type: in vivo; conditions: mouse
Experimental: Des lots de 10 souris reçoivent le CRL 40827 30 min avant l'administration intrapéritonéale d: 34 mg/kg de triiodoéthy- late de gallamine. A la plus forte dose (34 mg/kg),le CRL 40827 empêche l'apparition des convulsions et de la mort chez 40% des animaux.
as §1

[8] = system: souris; test: Toxicity: maximal non-lethal dose DL-0, intraperitoneal; assay type: in vivo; conditions: mouse, i.p.
Experimental: La dose maximale non mortelle, DL-0, est supérieure à 128 mg/kg et inférieure à 256 mg/kg, chez la souris, par voie I.P. 2°) - Action sur le SNC
as §2
La dose maximale non mortelle, DL-0, est supérieure à 64 mg/kg et inférieure à 128 mg/kg chez la souris mâle.
Le CRL 40854, en solution dans de l'eau distillée, a été administré par voie intrapéritonéale sous un volume de 20 ml/kg chez la souris màle et de 5 ml/kg chez le rat màle.
La dose maximale non mortelle DL-0 est supérieure à 128 mg/kg et inférieure à 256 mg/kg chez la souris.

[9] = system: souris; test: Four-plate test, traction and electroshock; assay type: in vivo; conditions: mouse, 30 min after dosing
Experimental: Le test est pratiqué sur des lots de 10 souris, 30 min après l'administration de CRL 40827.
as §1

[10] = system: rat; test: Interaction with apomorphine, rat; assay type: in vivo; conditions: i.p. 30 min before apomorphine 0,5 mg/kg s.c.
Experimental: as §2
Le CRL 40 827 est administré à des lots de 6 rats 30 min avant l'injection sous-cutanée de 0,5 mg/kg d'apomorphine.
as §1

[11] = system: souris; test: Interaction with reserpine (hypothermia, ptosis); assay type: in vivo; conditions: mouse
Experimental: Quatre heures après l'injection intrapéritonéale de 2,5 mg/kg de réserpine, des lots de 6 souris reçoivent le CRL 40827.
as §1

[12] = system: souris; test: Motility reduced by hypoxic aggression (acute hypobaric anoxia); assay type: in vivo; conditions: mouse
Experimental: Une demi-heure après avoir reçu le CRL 40827, les souris (10 par dose, 20 témoins) sont soumises à une anoxie hypobare aiguë (dépression de 8 x 10^4 Pa en 90 s, détente de 45 s), puis elles sont placées en actimètre où leur motilité est enregistrée pendant 10 min.
as §1

[13] = system: souris; test: Spontaneous motility (actimeter); assay type: in vivo; conditions: mouse; high dose 64 mg/kg
Experimental: Une demi-heure après avoir reçu le CRL 40827, les souris (6 par dose, 12 témoins) sont placées en actimètre où leur motilité est enregistrée pendant 30 min.
as §1

[14] = CNS action of CRL 40727: hypothermia and amphetamine stereotypies (species not given); conditions: in vivo
[15] = system: chiens; test: Cardiovascular action, intravenous perfusion in dogs; assay type: in vivo, chien; conditions: for minimal effective dose: Canis lupus familiaris, iv
Experimental: Deux chiens reçoivent le CRL 40727 par voie intraveineuse, en perfusion de 6 min, aux doses successives de 0,1 mg/kg, 1 mg/kg, 2,5 mg/kg, 5 mg/kg, 10 mg/kg et 20 mg/kg. On messure leur pression artérielle, leur fréquence cardiaque, leur débit fémoral, leur température rectale.

[16] = system: souris; test: CNS action of CRL 40727: sedative-type effects in the mouse; assay type: in vivo
[17] = system: chiens; test: Cardiovascular action, intraduodenal route in dogs; assay type: in vivo, chien
Experimental: Trois chiens reçoivent le CRL 40727 par voie intraduodénale aux doses successives de 1 mg/kg, 2,5 mg/kg, 5 mg/kg et 10 mg/kg. On mesure les mêmes paramètres que ci-dessus. On observe ce qui suit.

SMILES: CC(C)(C)NCC(O)c1ccccc1F (stereo not shown) [CRL 40827A, fumaratede 1-(2-fluorophényl)-2-tertiobutylamino-1-éthanol]
- résultats en tant qu'agents antidépresseurs chez l'homme [1]: excellents résultats

SMILES: CC(C)(C)NCC(O)c1ccc(F)cc1 (stereo not shown) [CRL 40854, chlorhydratede 1-(4-fluorophényl)-2-tertiobutylamino-1-éthanol]
- durée des stéréotypies amphétaminiques [2]: potentialise
- activité motrice (souris habituée à son enceinte) [3]: ne provoque pas de reprise nette
- agressivité intergroupes / effet antiagressif [4]: diminue l'agressivité intergroupes
- comportement de verticalisation et stéréotypies (apomorphine) [5]: sans modifier
- action hypothermisante de l'apomorphine ([5]; 16 and 64 mg/kg i.p.): s'oppose modérément
- signes de stimulation cholinergique périphérique (oxotrémorine) [6]: ne modifie pas
- tremblements provoqués par l'oxotrémorine [6]: ne modifie pas
- effet hypothermisant de l'oxotrémorine ([6]; doses printed 'le et 64 mg/kg'): aggrave
- apparition des convulsions et mort (anoxie par curarisation) [7]: ne modifie pas
- dose maximale non mortelle, DL-0 [8]: > 128 mg/kg and < 256 mg/kg
- effets convulsivants de l'électrochoc [9]: ne modifie pas les effets convulsivants
- incapacité motrice (traction) [9]: ne provoque pas de déficit moteur majeur
- nombre de passages punis (test des quatre plaques) [9]: n'entraîne pas d'augmen- tion
- stéréotypies induites par l'apomorphine [10]: ne modifie pas
- ptôsis réserpinique [11]: gans modifier
- hypothermie réserpinique ([11]; 4, 16 and 64 mg/kg): antagonise modérément
- récupération motrice après anoxie hypobare [12]: n'entraîne pas d'amélioration
- motilité spontanée [13]: diminue modérément

SMILES: CC(C)NCC(=O)c1ccc(F)cc1 [CRL 40727, chlorhydratede N-(4-fluorophénacyl)-isopropylamine]
- effets de type sédatif: température, effets hypothermisants de l'apomorphine, l'oxotrémorine et la réserpine [14]: hypothermie et potentialisation des effets hypothermisants de l'apomorphine, l'oxotrémorine et la réserpine
- stéréotypies amphétaminiques [14]: antagonisme modéré
- comportement de verticalisation et stéréotypies (apomorphine) [5]: ne modifie pas
- action hypothermisante de la forte dose d'apomorphine ([5]; 0,5, 2 and above all 8 and 32 mg/kg i.p., 30 min before apomorphine 16 mg/kg s.c.): s'oppose nettement
- minimal effective dose ([15]; dog, i.v., successive doses 0,1 to 20 mg/kg, read-out: dose from which the débit fémoral increases): 1 mg/kg
- minimal effective dose ([15]; dog, i.v., read-out: dose from which the pression artérielle diastolique decreases): 10 mg/kg
- minimal effective dose ([15]; dog, i.v., read-out: dose from which the pression artérielle différentielle increases): 5 mg/kg
- minimal effective dose ([15]; dog, i.v., read-out: dose from which the pression artérielle moyenne decreases): 20 mg/kg
- fréquence cardiaque ([15]; dog, i.v.): n'est pas nettement modifiée
- hypotension à l'isoprénaline ([15]; dog, i.v.): n'est pas modifiée
- fréquence cardiaque (tachycardie à l'isoprénaline) ([15]; dog, mean, after 10 mg/kg i.v., control 215): 182 battements/min
- pression artérielle ([15]; one dog, supplementary dose of 40 mg/kg I.V.): hypotension plus importante qu'à la dose précédente
- effets de type sédatif: motilité et agressivité [16]: hypomotilité et diminution de l'agressivité
- effets de type sédatif: sédation, réactivité [16]: sédation et hyporéactivité
- dose maximale non mortelle, DL-0 [8]: > 128 mg/kg and < 256 mg/kg
- minimal effective dose ([17]; Canis lupus familiaris, dog, intraduodenal, read-out: dose from which une action hypotensive appears): 10 mg/kg
- action hypotensive et vasodilatatrice ([17]; another dog, 5 mg/kg I.V. at the end of the intraduodenal test): Le même résultat
- hypotension à l'isoprénaline ([17]; dog, intraduodenal): n'est pas modifiée
- fréquence cardiaque (tachycardie à l'isoprénaline) ([17]; dog, mean, after 10 mg/kg intraduodenal, control 220): 165 battements/min
- action hypotensive et vasodilatatrice ([17]; one dog, supplementary dose of 20 mg/kg I.D.): action hypotensive plus importante, sans effet vasodilatateur supplémentaire
- résultats cliniques dans le domaine psychotrope en tant qu'agents sédatifs et antidépresseurs ([1]; clinic): bons résultats
- résultats en tant qu'agents antidépresseurs chez l'homme [1]: excellents résultats

SMILES: COc1cc(OC)c(C(=O)CCCN2CCCC2)c(OC)c1 [LL 1656, chlorhydratede (2,4,6-triméthoxyphényl)-(3-pyrrolidino-propyl)-cétone, reference compound]
- débit fémoral ([15]; one dog, 6 mg/kg I.V. after the CRL 40727 doses): n'augmente pas plus qu'avec la dose de 10 mg/kg de CRL 40727
- vasodilatation ([17]; 6 mg/kg i.v., injected after CRL 40727): n'entraîne pas de vasodilatation supplémentaire

From patent publication EP0060954A1, “Derivatives of fluorophenacyl amines and their therapeutic use” (LABORATOIRE L. LAFON Société anonyme dite:, priority 1981, dated 1982)
